Reference: ChEMBL document CHEMBL1142715, “Discovery of new tetracyclic tetrahydrofuran derivatives as potential broad-spectrum psychotropic agents” (J Med Chem, 2005)

Columns and labels:
[1] = tested on: Rattus norvegicus; experiment: In vivo effective dose to inhibit tryptamine-induced bilateral convulsions in rats; type: functional
[2] = tested on: Rattus norvegicus; experiment: In vivo effective dose for reversal of tryptamine-induced cyanosis in rats; type: functional
[3] = tested on: Mus musculus; experiment: In vivo effective dose for reversal of RO-4-1284 induced hypothermia in mouse; type: functional
[4] = species: Rattus norvegicus; experiment: Effective dose for antagonistic activity against m-chlorophenyl-piperazine induced anxiety in rats; type: functional
[5] = tested on: Rattus norvegicus; experiment: In vivo effective dose to inhibit apomorphine induced agitation in rats upon subcutaneous administration; type: functional; details: sc
[6] = biological target: T1, Alpha-2C adrenergic receptor (Homo sapiens, UniProt P18825); experiment: Inhibition of [3H]rauwolscine binding to Alpha-2C adrenergic receptor
T1 sequence (P18825 whole entry): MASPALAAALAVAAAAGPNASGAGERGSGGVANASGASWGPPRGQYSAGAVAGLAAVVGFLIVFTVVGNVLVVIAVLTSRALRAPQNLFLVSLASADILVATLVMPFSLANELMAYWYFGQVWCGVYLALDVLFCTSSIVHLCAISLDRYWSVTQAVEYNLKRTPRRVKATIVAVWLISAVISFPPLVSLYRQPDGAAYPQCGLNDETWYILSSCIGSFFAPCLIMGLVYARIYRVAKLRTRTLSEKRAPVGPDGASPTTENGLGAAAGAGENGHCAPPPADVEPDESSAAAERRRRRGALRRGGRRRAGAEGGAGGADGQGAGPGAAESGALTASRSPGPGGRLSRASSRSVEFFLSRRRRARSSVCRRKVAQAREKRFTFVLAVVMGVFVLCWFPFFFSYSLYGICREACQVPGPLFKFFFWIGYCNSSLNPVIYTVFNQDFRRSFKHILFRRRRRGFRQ

[7] = biological target: D(1A) dopamine receptor (Homo sapiens, UniProt P21728); experiment: Inhibition of [3H]SCH-23390 binding to human Dopamine receptor D1
Chain of D(1A) dopamine receptor (P21728 whole entry): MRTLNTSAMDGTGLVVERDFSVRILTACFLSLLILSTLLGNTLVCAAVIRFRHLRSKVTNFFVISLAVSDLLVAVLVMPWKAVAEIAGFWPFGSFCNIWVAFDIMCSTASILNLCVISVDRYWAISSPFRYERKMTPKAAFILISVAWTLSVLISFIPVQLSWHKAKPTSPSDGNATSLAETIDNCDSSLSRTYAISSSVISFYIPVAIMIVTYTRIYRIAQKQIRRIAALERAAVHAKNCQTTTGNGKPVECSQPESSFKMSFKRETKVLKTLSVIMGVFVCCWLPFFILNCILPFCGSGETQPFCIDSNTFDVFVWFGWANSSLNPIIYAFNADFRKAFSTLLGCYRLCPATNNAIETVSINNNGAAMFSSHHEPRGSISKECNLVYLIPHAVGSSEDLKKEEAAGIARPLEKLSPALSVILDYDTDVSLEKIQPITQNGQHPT

[8] = biological target: Histamine H1 receptor (Homo sapiens, UniProt P35367)
Chain of Histamine H1 receptor (P35367 whole entry): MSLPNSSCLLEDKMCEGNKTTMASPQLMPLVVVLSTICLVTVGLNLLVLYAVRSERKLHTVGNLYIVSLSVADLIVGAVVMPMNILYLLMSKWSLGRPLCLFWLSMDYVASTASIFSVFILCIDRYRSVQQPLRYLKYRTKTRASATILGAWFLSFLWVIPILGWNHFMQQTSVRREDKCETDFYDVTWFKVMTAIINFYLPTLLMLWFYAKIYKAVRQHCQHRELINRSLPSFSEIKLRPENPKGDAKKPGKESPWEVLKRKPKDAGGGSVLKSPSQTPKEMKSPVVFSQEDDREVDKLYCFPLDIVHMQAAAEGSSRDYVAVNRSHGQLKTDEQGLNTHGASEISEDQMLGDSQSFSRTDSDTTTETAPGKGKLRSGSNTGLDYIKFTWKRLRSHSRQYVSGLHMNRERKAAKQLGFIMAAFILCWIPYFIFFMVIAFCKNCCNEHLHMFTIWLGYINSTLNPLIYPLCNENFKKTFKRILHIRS
Description: Inhibition of [3H]pyrilamine binding to human Histamine H1 receptor

[9] = biological target: Norepinephrine transporter (Rattus norvegicus, UniProt Q9WTR4); experiment: Inhibition of [3H]nisoxetine binding to rat Norepinephrine transporter
Chain of Norepinephrine transporter (Q9WTR4 whole entry): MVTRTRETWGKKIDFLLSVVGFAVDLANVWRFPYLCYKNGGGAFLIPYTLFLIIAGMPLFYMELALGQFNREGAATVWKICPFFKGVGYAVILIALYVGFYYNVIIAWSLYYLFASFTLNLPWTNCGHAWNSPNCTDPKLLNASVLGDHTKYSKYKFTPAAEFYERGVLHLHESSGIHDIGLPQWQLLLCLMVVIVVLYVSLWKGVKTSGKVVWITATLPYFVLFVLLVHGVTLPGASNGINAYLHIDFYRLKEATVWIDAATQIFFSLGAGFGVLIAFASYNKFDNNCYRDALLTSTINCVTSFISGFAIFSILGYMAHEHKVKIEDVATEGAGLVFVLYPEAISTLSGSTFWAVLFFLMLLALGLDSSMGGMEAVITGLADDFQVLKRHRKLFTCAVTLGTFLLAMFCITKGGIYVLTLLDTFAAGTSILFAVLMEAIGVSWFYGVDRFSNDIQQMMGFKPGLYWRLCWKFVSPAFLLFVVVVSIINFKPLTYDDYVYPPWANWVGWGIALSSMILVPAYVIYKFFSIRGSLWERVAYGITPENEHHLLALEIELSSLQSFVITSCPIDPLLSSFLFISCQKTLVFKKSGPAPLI

[10] = biological target: D(3) dopamine receptor (Homo sapiens, UniProt P35462)
Chain of D(3) dopamine receptor (P35462 whole entry): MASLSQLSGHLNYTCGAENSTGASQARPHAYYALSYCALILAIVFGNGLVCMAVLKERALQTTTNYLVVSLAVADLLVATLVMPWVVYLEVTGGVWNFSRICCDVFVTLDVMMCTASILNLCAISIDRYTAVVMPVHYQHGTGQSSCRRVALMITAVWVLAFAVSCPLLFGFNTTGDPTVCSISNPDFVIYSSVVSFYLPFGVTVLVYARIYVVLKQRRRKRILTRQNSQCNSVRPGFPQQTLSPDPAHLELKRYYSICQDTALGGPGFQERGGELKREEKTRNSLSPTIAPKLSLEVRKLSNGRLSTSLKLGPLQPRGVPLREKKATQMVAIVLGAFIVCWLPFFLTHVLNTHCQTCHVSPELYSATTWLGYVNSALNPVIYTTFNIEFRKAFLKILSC
Description: Inhibition of [125I]iodosulpiride binding to human Dopamine receptor D3

[11] = biological target: T2, 5-hydroxytryptamine receptor 2C (Homo sapiens, UniProt P28335)
T2 sequence (P28335 whole entry): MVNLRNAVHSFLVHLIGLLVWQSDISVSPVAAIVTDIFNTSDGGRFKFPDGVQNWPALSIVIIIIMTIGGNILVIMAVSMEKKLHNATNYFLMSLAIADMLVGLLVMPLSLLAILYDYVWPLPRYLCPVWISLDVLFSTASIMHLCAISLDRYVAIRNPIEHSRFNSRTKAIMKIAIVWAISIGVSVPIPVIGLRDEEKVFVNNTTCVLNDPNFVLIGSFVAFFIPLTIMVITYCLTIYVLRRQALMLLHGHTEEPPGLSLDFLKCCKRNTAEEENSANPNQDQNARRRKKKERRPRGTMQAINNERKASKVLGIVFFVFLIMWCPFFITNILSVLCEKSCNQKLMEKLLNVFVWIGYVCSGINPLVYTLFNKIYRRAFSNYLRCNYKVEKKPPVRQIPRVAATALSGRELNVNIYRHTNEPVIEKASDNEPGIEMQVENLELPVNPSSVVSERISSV
Description: Inhibition of [3H]mesulergine binding to human 5-hydroxytryptamine 2C receptor

[12] = biological target: T3, Alpha-2A adrenergic receptor (Homo sapiens, UniProt P08913)
T3 sequence (P08913 whole entry): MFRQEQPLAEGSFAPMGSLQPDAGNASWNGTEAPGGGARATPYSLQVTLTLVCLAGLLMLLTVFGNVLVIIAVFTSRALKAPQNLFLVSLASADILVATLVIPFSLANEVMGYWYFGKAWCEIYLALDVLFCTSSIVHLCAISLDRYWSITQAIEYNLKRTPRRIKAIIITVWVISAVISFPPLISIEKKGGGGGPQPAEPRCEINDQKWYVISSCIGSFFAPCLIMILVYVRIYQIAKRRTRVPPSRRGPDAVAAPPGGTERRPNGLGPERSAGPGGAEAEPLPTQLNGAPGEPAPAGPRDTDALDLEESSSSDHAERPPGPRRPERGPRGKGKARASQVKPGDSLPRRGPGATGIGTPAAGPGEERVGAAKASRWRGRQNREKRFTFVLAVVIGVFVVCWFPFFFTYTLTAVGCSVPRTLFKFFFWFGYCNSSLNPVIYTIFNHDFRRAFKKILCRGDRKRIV
Description: Inhibition of [3H]rauwolscine binding to Alpha-2A adrenergic receptor

[13] = biological target: 5-hydroxytryptamine receptor 7 (Homo sapiens, UniProt P34969)
Chain of 5-hydroxytryptamine receptor 7 (P34969 whole entry): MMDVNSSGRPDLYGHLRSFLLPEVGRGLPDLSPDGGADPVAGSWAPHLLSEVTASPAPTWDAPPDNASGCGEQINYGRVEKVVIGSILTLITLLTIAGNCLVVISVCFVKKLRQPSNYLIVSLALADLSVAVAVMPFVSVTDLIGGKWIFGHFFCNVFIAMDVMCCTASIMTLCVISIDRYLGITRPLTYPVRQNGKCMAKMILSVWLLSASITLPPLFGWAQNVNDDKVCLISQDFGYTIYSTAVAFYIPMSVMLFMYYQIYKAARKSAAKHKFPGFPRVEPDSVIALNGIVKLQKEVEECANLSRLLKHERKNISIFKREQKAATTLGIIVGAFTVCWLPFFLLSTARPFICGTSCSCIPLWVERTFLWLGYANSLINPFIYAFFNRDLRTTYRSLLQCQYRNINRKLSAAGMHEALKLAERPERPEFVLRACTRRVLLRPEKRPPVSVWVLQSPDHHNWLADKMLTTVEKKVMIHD
Description: Inhibition of [3H]5-HT binding to human 5-hydroxytryptamine 7 receptor

[14] = biological target: T4, Adrenergic receptor alpha-1 (Rattus norvegicus, UniProt P15823+P23944+P43140)
T4 sequence (P15823 whole entry): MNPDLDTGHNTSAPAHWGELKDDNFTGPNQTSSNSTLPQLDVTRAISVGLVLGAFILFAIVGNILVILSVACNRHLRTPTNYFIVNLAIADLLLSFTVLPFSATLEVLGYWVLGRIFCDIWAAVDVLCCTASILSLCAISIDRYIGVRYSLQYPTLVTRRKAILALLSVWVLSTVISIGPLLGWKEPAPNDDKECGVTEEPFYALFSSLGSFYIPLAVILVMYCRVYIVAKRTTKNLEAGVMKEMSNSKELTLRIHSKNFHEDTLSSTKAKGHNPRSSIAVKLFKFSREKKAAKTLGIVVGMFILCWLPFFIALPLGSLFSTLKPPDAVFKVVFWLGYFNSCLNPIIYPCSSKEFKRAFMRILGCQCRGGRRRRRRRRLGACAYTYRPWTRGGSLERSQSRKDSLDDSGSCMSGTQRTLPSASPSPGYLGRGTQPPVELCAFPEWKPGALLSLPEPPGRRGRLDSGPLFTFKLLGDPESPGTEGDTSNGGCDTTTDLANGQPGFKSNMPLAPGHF
T4 sequence (P23944 whole entry): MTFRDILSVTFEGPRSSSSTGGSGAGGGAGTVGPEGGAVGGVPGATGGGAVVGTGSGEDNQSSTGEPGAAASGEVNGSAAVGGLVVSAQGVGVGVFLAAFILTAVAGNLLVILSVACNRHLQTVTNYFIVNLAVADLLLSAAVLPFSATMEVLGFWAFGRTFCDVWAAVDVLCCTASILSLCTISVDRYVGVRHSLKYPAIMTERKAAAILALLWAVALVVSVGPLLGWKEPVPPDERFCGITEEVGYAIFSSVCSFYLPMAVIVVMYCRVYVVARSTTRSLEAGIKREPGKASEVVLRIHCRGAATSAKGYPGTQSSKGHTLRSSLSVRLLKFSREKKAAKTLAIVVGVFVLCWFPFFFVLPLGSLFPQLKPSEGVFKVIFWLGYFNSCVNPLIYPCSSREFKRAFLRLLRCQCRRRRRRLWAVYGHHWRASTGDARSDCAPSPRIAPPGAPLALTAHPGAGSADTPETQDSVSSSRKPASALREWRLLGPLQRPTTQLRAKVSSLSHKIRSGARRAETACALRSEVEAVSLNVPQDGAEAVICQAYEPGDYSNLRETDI
T4 sequence (P43140 whole entry): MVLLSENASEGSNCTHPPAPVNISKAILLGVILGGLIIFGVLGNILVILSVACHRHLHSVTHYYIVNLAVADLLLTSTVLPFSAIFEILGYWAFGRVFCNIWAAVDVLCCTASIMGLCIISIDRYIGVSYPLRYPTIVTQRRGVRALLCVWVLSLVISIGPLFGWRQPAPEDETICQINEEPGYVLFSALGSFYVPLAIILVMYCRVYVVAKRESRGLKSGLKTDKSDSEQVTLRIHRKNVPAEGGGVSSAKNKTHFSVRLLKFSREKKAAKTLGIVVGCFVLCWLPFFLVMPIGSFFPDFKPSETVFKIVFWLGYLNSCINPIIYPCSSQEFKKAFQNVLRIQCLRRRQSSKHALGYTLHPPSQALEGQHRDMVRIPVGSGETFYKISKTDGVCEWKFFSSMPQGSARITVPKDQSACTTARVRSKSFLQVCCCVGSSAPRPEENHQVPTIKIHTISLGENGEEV
Description: Inhibition of [3H]prazosin binding to rat Alpha-1 adrenergic receptor

[15] = tested on: Rattus norvegicus; experiment: In vivo effective dose for reversal of tryptamine-induced backward locomotion in rats; type: functional
[16] = biological target: 5-hydroxytryptamine receptor 2A (Homo sapiens, UniProt P28223)
Chain of 5-hydroxytryptamine receptor 2A (P28223 whole entry): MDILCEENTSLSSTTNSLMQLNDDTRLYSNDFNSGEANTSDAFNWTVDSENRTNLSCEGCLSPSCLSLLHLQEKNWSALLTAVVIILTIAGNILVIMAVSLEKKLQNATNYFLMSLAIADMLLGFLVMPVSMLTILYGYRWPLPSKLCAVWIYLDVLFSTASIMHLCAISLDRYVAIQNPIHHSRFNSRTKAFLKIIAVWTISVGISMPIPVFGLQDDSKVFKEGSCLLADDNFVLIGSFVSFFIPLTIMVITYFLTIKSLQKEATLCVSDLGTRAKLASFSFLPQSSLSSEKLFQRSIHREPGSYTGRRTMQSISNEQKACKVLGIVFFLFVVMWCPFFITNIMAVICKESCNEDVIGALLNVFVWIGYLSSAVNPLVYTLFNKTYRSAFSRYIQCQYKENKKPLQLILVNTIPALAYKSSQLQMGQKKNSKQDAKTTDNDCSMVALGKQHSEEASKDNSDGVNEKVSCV
Description: Inhibition of [125I]R91150 binding to human 5-hydroxytryptamine 2A receptor

SMILES	ED50 [1]	ED50 [2]	ED50 [3]	ED50 [4]	ED50 [5]	Ki [6]	Ki [7]	Ki [8]	Ki [9]	Ki [10]	Ki [11]	Ki [12]	Ki [13]	Ki [14]	ED50 [15]	Ki [16]
CN1CCN(C2=Nc3cc(Cl)ccc3Nc3ccccc32)CC1 [CLOZAPINE]	0.22 mg/kg	0.26 mg/kg	> 80 mg/kg	> 2.5 mg/kg	8.2 mg/kg											
CN(C)C[C@@H]1CC2c3ccccc3Sc3ccc(F)cc3[C@H]2O1 (some centres not stated)						0.078 µM	0.019 µM	0.0012 µM	0.0027 µM	0.0086 µM	0.00065 µM	0.072 µM	0.034 µM	0.032 µM		
CN(C)C[C@H]1CC2c3ccccc3Oc3ccc(Cl)cc3[C@H]2O1 (some centres not stated)						0.026 µM	0.083 µM	0.0043 µM	0.0094 µM	0.251 µM	0.0024 µM	0.01 µM	0.251 µM	0.035 µM		
CN(C)C[C@H]1C[C@@H]2c3ccccc3Sc3ccc(F)cc3[C@H]2O1	0.08 mg/kg	0.05 mg/kg	2 mg/kg	> 2.5 mg/kg	1.2 mg/kg	0.093 µM	0.022 µM	0.0014 µM	0.04 µM	0.015 µM	0.0015 µM	0.156 µM	0.0065 µM	0.041 µM	> 2.5 mg/kg	
CN(C)C[C@H]1CC2c3ccccc3Oc3ccc(Br)cc3[C@H]2O1 (some centres not stated)						0.742 µM	0.154 µM	0.042 µM	0.382 µM	0.095 µM	0.0089 µM	0.407 µM	0.035 µM	0.234 µM		
CN(C)C[C@@H]1CC2c3ccccc3Oc3ccc(Cl)cc3[C@H]2O1 (some centres not stated)						0.677 µM	0.25 µM	0.014 µM	0.088 µM	0.045 µM	0.0037 µM	0.302 µM	0.092 µM	0.228 µM		
CN(C)C[C@@H]1CC2c3ccccc3Oc3ccc(F)cc3[C@H]2O1 (some centres not stated)						0.219 µM		0.033 µM	0.02 µM		0.0076 µM	0.251 µM	0.057 µM	0.338 µM		> 5.45 µM
CN(C)C[C@H]1CC2c3ccccc3Oc3ccc(F)cc3[C@H]2O1 (some centres not stated)						0.2 µM		0.0075 µM	0.0036 µM		0.0043 µM	0.269 µM	0.08 µM	0.071 µM		> 5.45 µM
